Laboratory results published in PubChem BioAssay (NCI).
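Grown in 96-well plates, cells were treated for 48 hours with each compound at five concentrations. Insufficient inhibition: endpoint recorded as highest concentration tested. TGI: concentration producing complete growth inhibition.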 Where a SMILES comes first, the peptide text is derived from it. The star is where a group is joined. Boc = CC(C)(C)OC(=O)*; Bz = O=C(c1ccccc1)*

What was measured:
Test in all cases: inhibition of tumour cell growth, NCI panel, 48 h
[1] = system: 786-0 renal
[2] = system: T-47D breast
[3] = system: OVCAR-4 ovarian
[4] = system: K-562 leukemia
[5] = system: MDA-MB-435
[6] = system: UO-31 renal
[7] = system: SNB-75 CNS
[8] = system: CCRF-CEM leukemia
[9] = system: A498 renal
[10] = system: IGROV1 ovarian
[11] = system: NCI-H226 lung
[12] = system: OVCAR-8 ovarian
[13] = system: HCT-116 colon
[14] = system: HL-60(TB) leukemia
[15] = system: MALME-3M melanoma
[16] = system: SNB-19 CNS
[17] = system: MCF7 breast
[18] = system: MDA-MB-231 breast
[19] = system: CAKI-1 renal
[20] = system: TK-10 renal
[21] = system: DU-145 prostate
[22] = system: RXF 393 renal
[23] = system: HCC-2998 colon
[24] = system: HT29 colon
[25] = system: SK-MEL-5 melanoma
[26] = system: HCT-15 colon
[27] = system: HOP-92 NSCLC
[28] = system: SW-620 colon
[29] = system: SF-295 CNS
[30] = system: COLO 205 colon
[31] = system: SK-OV-3 ovarian
[32] = system: MOLT-4 leukemia
[33] = system: LOX IMVI melanoma
[34] = system: NCI-H23 lung
[35] = system: UACC-62 melanoma
[36] = system: SK-MEL-28 melanoma
[37] = system: NCI-H460 lung
[38] = system: MDA-N
[39] = system: NCI-H522 lung
[40] = system: OVCAR-5 ovarian
[41] = system: A549 NSCLC
[42] = system: BT-549 breast
[43] = system: KM12 colon
[44] = system: M14 melanoma
[45] = system: SN12C renal
[46] = system: HS 578T breast
[47] = system: UACC-257 melanoma
[48] = system: PC-3 prostate
[49] = system: HOP-62 NSCLC
[50] = system: SK-MEL-2 melanoma
[51] = system: NCI/ADR-RES ovarian
[52] = system: SF-539 CNS
[53] = system: ACHN renal
[54] = system: RPMI-8226 leukemia
[55] = system: SF-268 CNS
[56] = system: U251 CNS
[57] = system: EKVX NSCLC
[58] = system: OVCAR-3 ovarian
[59] = system: SR leukemia

In the case of `CC(NC(=O)C(Cc1ccc(OC(=O)c2ccccc2)cc1)NC(=O)OC(C)(C)C)C(=O)NC(Cc1ccccc1)C(=O)NCC(N)=O` (configuration not stated) (Boc-Y(Bz)AFG-NH2; configuration not given here), the TGI [1] is reported as 43.5 µM, the TGI [2] is reported as 50.7 µM and the TGI [3] is reported as 47.2 µM. It also gave a TGI [4] of 57.4 µM, a TGI [5] of 47.4 µM and a TGI [6] of 35.2 µM. The TGI [7] was 49.6 µM, the TGI [8] was over 100 µM and the TGI [9] was 41.9 µM. It also gave a TGI [10] of 40.7 µM, a TGI [11] of 51 µM and a TGI [12] of 58.8 µM. The TGI [13] was 91.6 µM, the TGI [14] was 82 µM and the TGI [15] was 42 µM. The TGI [16] was 36.5 µM, the TGI [17] was 40.8 µM and the TGI [18] was 36.5 µM. For the same molecule, the TGI [19] was over 100 µM, the TGI [20] was 41.4 µM and the TGI [21] was 42.3 µM. For the same molecule, the TGI [22] was 46.4 µM, the TGI [23] was 38.5 µM and the TGI [24] was 34.4 µM. It also gave a TGI [25] of 81.7 µM, a TGI [26] of over 100 µM and a TGI [27] of 50.9 µM. It also gave a TGI [28] of over 100 µM, a TGI [29] of 40.1 µM and a TGI [30] of 84.8 µM. It also gave a TGI [31] of 39.4 µM, a TGI [32] of over 100 µM and a TGI [33] of 49.5 µM. For the same molecule, the TGI [34] was 45.9 µM, the TGI [35] was 37.3 µM and the TGI [36] was over 100 µM. For the same molecule, the TGI [37] was 33.7 µM, the TGI [38] was 79.4 µM and the TGI [39] was 42.6 µM. The TGI [40] was 40.3 µM, the TGI [41] was 55 µM and the TGI [42] was 37.4 µM. It also gave a TGI [43] of over 100 µM, a TGI [44] of 34 µM and a TGI [45] of 42 µM. The TGI [46] was 47 µM, the TGI [47] was 37 µM and the TGI [48] was 37.3 µM. For the same molecule, the TGI [49] was 31.4 µM, the TGI [50] was 35.6 µM and the TGI [51] was over 100 µM. For the same molecule, the TGI [52] was 68.3 µM, the TGI [53] was 54.6 µM and the TGI [54] was 59.7 µM. The TGI [55] was 43 µM and the TGI [56] was 35.1 µM.
`NCC(=O)NC1(c2cc3ccccc3s2)CCCCC1` was tested, and the TGI [1] was over 100 µM, the TGI [2] was over 100 µM and the TGI [3] was over 100 µM. For the same molecule, the TGI [4] was 24.6 µM, the TGI [5] was over 100 µM and the TGI [6] was over 100 µM. The TGI [7] was 83.7 µM, the TGI [8] was 59.5 µM and the TGI [9] was over 100 µM. The TGI [10] was over 100 µM, the TGI [11] was 69.5 µM and the TGI [12] was over 100 µM. The TGI [13] was over 100 µM, the TGI [14] was 86.8 µM and the TGI [15] was 36.3 µM. The TGI [16] was over 100 µM, the TGI [17] was over 100 µM and the TGI [19] was over 100 µM. It also gave a TGI [20] of over 100 µM, a TGI [21] of over 100 µM and a TGI [22] of over 100 µM. It also gave a TGI [23] of 29 µM, a TGI [24] of 54.8 µM and a TGI [25] of 33.2 µM. The TGI [26] was over 100 µM, the TGI [27] was 78.1 µM and the TGI [28] was over 100 µM. The TGI [29] was over 100 µM, the TGI [30] was 32.5 µM and the TGI [31] was over 100 µM. For the same molecule, the TGI [33] was over 100 µM, the TGI [34] was over 100 µM and the TGI [35] was 44.5 µM. It also gave a TGI [36] of 39.8 µM, a TGI [37] of over 100 µM and a TGI [38] of over 100 µM. For the same molecule, the TGI [39] was over 100 µM, the TGI [57] was over 100 µM and the TGI [40] was over 100 µM. For the same molecule, the TGI [41] was over 100 µM, the TGI [58] was over 100 µM and the TGI [42] was over 100 µM. For the same molecule, the TGI [43] was over 100 µM, the TGI [44] was 34 µM and the TGI [59] was 19.2 µM. The TGI [45] was over 100 µM, the TGI [46] was 99.5 µM and the TGI [47] was 32.1 µM. It also gave a TGI [49] of over 100 µM, a TGI [51] of over 100 µM and a TGI [52] of over 100 µM. The TGI [53] was 56.9 µM, the TGI [54] was 45.2 µM and the TGI [55] was over 100 µM.
`CC1=NCCN=C(C)C1N=Nc1ccc2nc(C)[nH]c2c1` gave a TGI [1] of 33.5 µM, a TGI [2] of 47.5 µM and a TGI [3] of 30.6 µM. The TGI [4] was 20.1 µM, the TGI [5] was 22.3 µM and the TGI [7] was 33.1 µM. It also gave a TGI [8] of 16.8 µM, a TGI [9] of 18 µM and a TGI [10] of 70.7 µM. For the same molecule, the TGI [11] was 44.1 µM, the TGI [12] was 85.1 µM and the TGI [13] was 38 µM. It also gave a TGI [14] of 9.33 µM, a TGI [15] of 41.5 µM and a TGI [16] of 28.7 µM. The TGI [17] was 30.1 µM, the TGI [18] was 31.2 µM and the TGI [19] was 36 µM. It also gave a TGI [20] of 42.9 µM, a TGI [21] of 30.9 µM and a TGI [22] of 40.1 µM. The TGI [23] was 41.1 µM, the TGI [24] was 50.9 µM and the TGI [26] was over 100 µM. For the same molecule, the TGI [27] was 22.5 µM, the TGI [28] was 33.4 µM and the TGI [29] was 31.5 µM. The TGI [30] was 53.6 µM, the TGI [31] was 39.2 µM and the TGI [32] was 23.6 µM. For the same molecule, the TGI [33] was 98.8 µM, the TGI [34] was 44.2 µM and the TGI [35] was 31.5 µM. The TGI [36] was 24.2 µM, the TGI [37] was 52.1 µM and the TGI [38] was 29.3 µM. The TGI [39] was 61.8 µM, the TGI [57] was 39.6 µM and the TGI [40] was 39.9 µM. The TGI [41] was 19.6 µM, the TGI [58] was 44.3 µM and the TGI [42] was 28.2 µM. For the same molecule, the TGI [43] was 30.9 µM, the TGI [44] was 16.8 µM and the TGI [45] was 30.9 µM. The TGI [46] was 57.5 µM, the TGI [47] was 28.6 µM and the TGI [48] was 22.3 µM. The TGI [49] was 61.1 µM, the TGI [50] was 46.3 µM and the TGI [51] was 47.9 µM. The TGI [52] was 42.5 µM, the TGI [53] was 32.1 µM and the TGI [54] was 17.4 µM. It also gave a TGI [55] of 46.4 µM and a TGI [56] of over 100 µM.
`CC(=N\N)/C(C)=N/N=C(C)/C(C)=N/N=C(C)/C(C)=N/N=C(C)/C(C)=N/N` gave a TGI [1] of over 100 µM, a TGI [2] of over 100 µM and a TGI [3] of over 100 µM. It also gave a TGI [4] of over 100 µM, a TGI [5] of over 100 µM and a TGI [6] of over 100 µM. The TGI [7] was over 100 µM, the TGI [8] was over 100 µM and the TGI [9] was over 100 µM. It also gave a TGI [10] of over 100 µM, a TGI [11] of over 100 µM and a TGI [12] of over 100 µM. It also gave a TGI [13] of over 100 µM, a TGI [14] of over 100 µM and a TGI [15] of over 100 µM. For the same molecule, the TGI [16] was over 100 µM, the TGI [17] was over 100 µM and the TGI [18] was over 100 µM. For the same molecule, the TGI [19] was over 100 µM, the TGI [20] was over 100 µM and the TGI [21] was over 100 µM. It also gave a TGI [22] of over 100 µM, a TGI [23] of over 100 µM and a TGI [24] of over 100 µM. It also gave a TGI [25] of over 100 µM, a TGI [26] of over 100 µM and a TGI [27] of over 100 µM. The TGI [28] was over 100 µM, the TGI [29] was over 100 µM and the TGI [30] was over 100 µM. The TGI [31] was over 100 µM, the TGI [32] was over 100 µM and the TGI [33] was over 100 µM. The TGI [34] was over 100 µM, the TGI [36] was over 100 µM and the TGI [37] was over 100 µM. The TGI [38] was over 100 µM, the TGI [39] was over 100 µM and the TGI [57] was over 100 µM. The TGI [40] was over 100 µM, the TGI [41] was over 100 µM and the TGI [58] was over 100 µM. For the same molecule, the TGI [42] was over 100 µM, the TGI [43] was over 100 µM and the TGI [44] was over 100 µM. For the same molecule, the TGI [45] was over 100 µM, the TGI [46] was over 100 µM and the TGI [47] was over 100 µM. It also gave a TGI [48] of over 100 µM, a TGI [49] of over 100 µM and a TGI [50] of over 100 µM. The TGI [51] was over 100 µM, the TGI [52] was over 100 µM and the TGI [54] was over 100 µM. It also gave a TGI [55] of over 100 µM and a TGI [56] of over 100 µM.
